Key:
activated macrophages = test: Biodistribution analysis (gamma counting of harvested tissues) in arthritic rats; format: in vivo, rat; details: FF 2000 nmoles/kg days 1,2,3,9,11,14 or MTX 0.15 mg days 1,8,15
Method: Arthritis was induced in 150-200 g female Lewis rats (Charles River Laboratories, Inc., Wilmington, Mass.), n=4/dose group. Briefly, 0.5 mg of heat-killed Mycoplasma butericum, suspended in mineral oil (5 mg/ml), was injected on day 0 into the left hind foot of rats following anesthesia with ketamine and xylazine. Disease was allowed to progress for 21 days, and animals were weighed on a daily basis to ensure the status of their health. […] All rats were maintained on a folate-deficient diet (DYETS, Inc., Bethlehem, Pa.) for 3 weeks prior to administration of folate-FITC in order to lower serum folate levels to physiologically relevant concentrations. Control rats were also maintained on a folate-deficient diet but not induced to develop arthritis.
Seventeen days following induction of the arthritis and three days prior to administration of the imaging agent (EC20), rats destined for macrophage depletion received a single intraperitoneal injection of clodronate liposomes containing 20 mg clodronate. […]
For biodistribution analysis, rats were euthanized by intraperitoneal injection of nebutal or pentobarbitol sodium. Liver, spleen, heart, lungs, intestine, and kidneys were then harvested and radiation in each tissue was determined by counting in a gamma counter (Packard BioScience Co., Meridian, Conn.).

[1] = test system: adjuvant-induced arthritis in rats; test: Adjuvant-induced arthritis, paw swelling (immunotherapy mediated protection); format: in vivo, rat; details: for inhibition of adjuvant-induced arthritis, left and right paw: Example 14, folate-FITC 3000 nmoles/kg per day, days 1,2,3, osmotic pump, MTX 0.15 mg ip days 1,8,15
Method: Arthritis was induced in 150-200 g female Lewis rats (Charles River Laboratories, Inc., Wilmington, Mass.), n=4/dose group. Briefly, 0.5 mg of heat-killed Mycoplasma butericum, suspended in mineral oil (5 mg/ml), was injected on day 0 into the left hind foot of rats following anesthesia with ketamine and xylazine. Disease was allowed to progress for 21 days, and animals were weighed on a daily basis to ensure the status of their health. […] Control rats were also maintained on a folate-deficient diet but not induced to develop arthritis.
The efficacy of a folate-FITC conjugate (folate-fluorescein isothiocyanate conjugate) against adjuvant-induced arthritis in rats was investigated. Each rat used in the experiment was immunized at the base of the tail with FITC-KLH (150 μg) to induce antibodies against FITC on days −38 and −10 before administration of Mycoplasma butericum (adjuvant) to induce arthritis. The immunization of FITC-KLH was done in combination with an adjuvant (i.e., such as TITERMAX® GOLD (150 μg), Alum (150 μg), or GPI-100 (150 μg) which are all adjuvants to induce antibodies against FITC as opposed to the adjuvant used to induce arthritis). The immunized animals were then injected on day 0 in the left foot pad with 0.5 mg of heat-killed Mycoplasma butyricum (adjuvant) to initiate development of arthritis. Then on days 1, 2, 3, 9, 11, and 14, post-adjuvant (Mycoplasma butyricum) injection, the rats were injected intraperitoneally with either saline (control rats) or 2000 nmoles/kg of folate-FITC (FF). Calipers were used to measure left and right foot dimensions daily.
Methotrexate (MTX) was administered at a dose of 0.15 mg by intraperitoneal injection one time per day on days 1, 8, and 15 after adjuvant administration. MTX was used in place of folate-FITC for animals treated with MTX.
Other animals were treated with 0.75 mg of MTX (FF+mid) or 1.5 mg of MTX (FF+high).

liver macrophages = test: Flow cytometry of folate-FITC binding to disaggregated liver cells (ED2 macrophage marker); format: cell-based, rat
Text: The protocols described in Examples 2, 4, 6 and 7 were used. To further confirm that the elevated uptake of EC20 in livers of arthritic rats is due to a macrophage population, livers were resected from collagenase-perfused rats and their disaggregated cells examined for folate conjugate uptake, using folate-FITC as a fluorescent marker for FR expression.

[2] = test system: Mac-1+ peripheral blood cells
Text: (§1) Using an antibody specific for granulocytes, we also examined whether tissue infiltrating neutrophils might take up folate conjugates.

[3] = test system: tissue infiltrating neutrophils
Text: as §1

[4] = Example 8, 2000 nmoles/kg ip days 1,2,3,9,11,14, FITC-immunized rats

| SMILES | effect of treatment on EC20 organ uptake (activated macrophages) | inhibition of adjuvant-induced arthritis, left and right paw [1] | binding in presence of excess free folic acid (liver macrophages; 1 mM folic acid) | liver macrophages that bound folate-FITC (liver macrophages; arthritic rats, 1 μM folate-FITC) | FITC intensity of arthritic macrophages (liver macrophages; vs macrophages from healthy livers) | activated macrophages invading feet after about 10 days (foot dimensions) [1, 4] | early (neutrophil) phase of paw swelling of adjuvant-injected feet [1, 4] | prolonged treatment vs 3 initial doses ([1]; Example 15, 3000 nmoles/kg, days 1,2,3,9,11,14 vs days 1,2,3) | inhibition of adjuvant-induced arthritis, right (uninjected) paw volume ([1]; Example 15, FF 3000, 600 and 120 nmoles/kg) | binding to Mac-1+ peripheral blood cells [2] | binding to liver neutrophils [3] |
| --- | --- | --- | --- | --- | --- | --- | --- | --- | --- | --- | --- |
| CN(Cc1cnc2nc(N)nc(N)c2n1)c1ccc(C(=O)N[C@@H](CCC(=O)O)C(=O)O)cc1 [MTX, Methotrexate, reference compound] | prevent EC20 uptake in all organs examined except the kidney | inhibits adjuvant-induced arthritis as well as MTX |  |  |  |  |  |  |  |  |  |
| Nc1nc2ncc(CNc3ccc(C(=O)NC(CCC(=O)NCCNC(=S)Nc4ccc(C(=O)O)c(-c5c6ccc(=O)cc-6oc6cc(O)ccc56)c4)C(=O)O)cc3)nc2c(=O)[nH]1 (stereo not shown) [folate-FITC, folate-fluorescein isothiocyanate] | prevent EC20 uptake in all organs examined except the kidney | inhibits adjuvant-induced arthritis as well as MTX | suppressed | 70% | higher than that of macrophages from healthy livers | eliminated or reduced | no impact on this phase of paw swelling | prolonged treatment with FF is more effective than 3 initial doses | inhibits adjuvant-induced arthritis in the right paw | no binding affinity | no binding capacity |

Source: patent US7632505B2, “Treatment of macrophage mediated disease” (Purdue Research Foundation, priority 2001, dated 2009)
